ChEMBL document CHEMBL4765228, “Indole-like Trk receptor antagonists” (Eur J Med Chem, 2016)

Assays:
[1] = target: Calcium/calmodulin-dependent protein kinase kinase 2 (Homo sapiens) (UniProt Q96RR4); assay: Inhibition of human CAMKK2 assessed as residual activity at 1 uM relative to control
[2] = target: Casein kinase II subunit alpha (Homo sapiens) (UniProt P68400); assay: Inhibition of human CK2alpha1 assessed as residual activity at 0.1 uM relative to control
[3] = target: Casein kinase II subunit alpha (Homo sapiens) (UniProt P68400); assay: Inhibition of human CK2alpha1 assessed as residual activity at 1 uM relative to control
[4] = target: Dual specificity tyrosine-phosphorylation-regulated kinase 1A (Homo sapiens) (UniProt Q13627); assay: Inhibition of human DYRK1A assessed as residual activity at 0.1 uM relative to control
[5] = target: Ephrin type-A receptor 2 (Homo sapiens) (UniProt P29317); assay: Inhibition of human EPHA2 assessed as residual activity at 0.1 uM relative to control
[6] = target: Glycogen synthase kinase-3 beta (Homo sapiens) (UniProt P49841); assay: Inhibition of human GSK3-beta assessed as residual activity at 0.1 uM relative to control
[7] = target: Glycogen synthase kinase-3 beta (Homo sapiens) (UniProt P49841); assay: Inhibition of human GSK3-beta assessed as residual activity at 1 uM relative to control
[8] = target: Tyrosine-protein kinase JAK2 (Homo sapiens) (UniProt O60674); assay: Inhibition of human JAK2 assessed as residual activity at 0.1 uM relative to control
Sequence of Tyrosine-protein kinase JAK2 (Homo sapiens) (O60674 whole entry): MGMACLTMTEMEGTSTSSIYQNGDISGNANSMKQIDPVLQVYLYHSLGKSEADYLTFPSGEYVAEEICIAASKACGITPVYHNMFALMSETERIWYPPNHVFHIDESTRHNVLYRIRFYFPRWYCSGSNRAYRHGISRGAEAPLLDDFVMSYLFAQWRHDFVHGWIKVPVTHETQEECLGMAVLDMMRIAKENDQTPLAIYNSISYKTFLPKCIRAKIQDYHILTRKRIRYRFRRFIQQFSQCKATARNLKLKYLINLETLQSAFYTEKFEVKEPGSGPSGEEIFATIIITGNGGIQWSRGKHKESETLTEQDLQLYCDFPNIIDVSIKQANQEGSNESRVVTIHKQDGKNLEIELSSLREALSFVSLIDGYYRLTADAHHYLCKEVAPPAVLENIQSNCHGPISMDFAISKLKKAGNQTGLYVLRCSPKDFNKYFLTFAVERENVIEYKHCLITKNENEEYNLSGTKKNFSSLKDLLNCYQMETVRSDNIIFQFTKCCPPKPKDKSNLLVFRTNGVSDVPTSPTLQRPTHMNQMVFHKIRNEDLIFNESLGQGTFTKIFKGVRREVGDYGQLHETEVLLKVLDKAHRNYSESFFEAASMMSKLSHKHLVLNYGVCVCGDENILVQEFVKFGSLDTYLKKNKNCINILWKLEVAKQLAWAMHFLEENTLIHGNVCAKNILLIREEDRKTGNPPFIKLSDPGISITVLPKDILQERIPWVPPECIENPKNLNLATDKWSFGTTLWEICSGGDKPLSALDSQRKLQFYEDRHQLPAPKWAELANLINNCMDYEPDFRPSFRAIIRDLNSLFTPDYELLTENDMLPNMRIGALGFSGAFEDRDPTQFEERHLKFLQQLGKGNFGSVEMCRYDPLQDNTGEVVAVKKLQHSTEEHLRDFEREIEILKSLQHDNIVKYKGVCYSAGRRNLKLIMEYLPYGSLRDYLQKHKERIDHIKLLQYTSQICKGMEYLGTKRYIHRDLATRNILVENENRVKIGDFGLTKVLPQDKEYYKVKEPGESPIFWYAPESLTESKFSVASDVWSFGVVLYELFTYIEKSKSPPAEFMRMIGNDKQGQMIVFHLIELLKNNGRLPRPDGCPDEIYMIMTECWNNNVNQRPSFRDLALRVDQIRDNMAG

[9] = target: T1, Mitogen-activated protein kinase kinase kinase 7 (Homo sapiens) (UniProt O43318); assay: Inhibition of human MAP3K7 assessed as residual activity at 1 uM relative to control
T1 sequence (whole entry): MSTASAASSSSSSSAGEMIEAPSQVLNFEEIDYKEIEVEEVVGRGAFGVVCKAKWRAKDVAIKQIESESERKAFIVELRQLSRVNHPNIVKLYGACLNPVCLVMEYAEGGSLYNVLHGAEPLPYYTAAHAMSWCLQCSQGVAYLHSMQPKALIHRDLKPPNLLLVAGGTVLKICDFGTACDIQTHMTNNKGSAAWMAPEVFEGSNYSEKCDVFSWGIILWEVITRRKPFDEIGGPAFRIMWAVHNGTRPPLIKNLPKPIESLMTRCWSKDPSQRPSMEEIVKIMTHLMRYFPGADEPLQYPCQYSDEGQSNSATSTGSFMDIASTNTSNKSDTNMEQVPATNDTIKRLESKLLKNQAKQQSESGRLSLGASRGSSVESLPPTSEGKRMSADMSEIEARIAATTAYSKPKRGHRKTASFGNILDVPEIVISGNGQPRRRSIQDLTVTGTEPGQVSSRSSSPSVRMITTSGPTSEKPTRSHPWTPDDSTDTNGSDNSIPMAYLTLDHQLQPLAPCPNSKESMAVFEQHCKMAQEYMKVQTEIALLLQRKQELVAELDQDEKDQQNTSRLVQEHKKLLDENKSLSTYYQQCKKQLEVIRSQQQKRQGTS

[10] = target: Mitogen-activated protein kinase 14 (Homo sapiens) (UniProt Q16539); assay: Inhibition of human p38-alpha assessed as residual activity at 1 uM relative to control
[11] = target: Serine/threonine-protein kinase PAK 4 (Homo sapiens) (UniProt O96013); assay: Inhibition of human PAK4 assessed as residual activity at 0.1 uM relative to control
Sequence of Serine/threonine-protein kinase PAK 4 (Homo sapiens) (O96013 whole entry, looked up): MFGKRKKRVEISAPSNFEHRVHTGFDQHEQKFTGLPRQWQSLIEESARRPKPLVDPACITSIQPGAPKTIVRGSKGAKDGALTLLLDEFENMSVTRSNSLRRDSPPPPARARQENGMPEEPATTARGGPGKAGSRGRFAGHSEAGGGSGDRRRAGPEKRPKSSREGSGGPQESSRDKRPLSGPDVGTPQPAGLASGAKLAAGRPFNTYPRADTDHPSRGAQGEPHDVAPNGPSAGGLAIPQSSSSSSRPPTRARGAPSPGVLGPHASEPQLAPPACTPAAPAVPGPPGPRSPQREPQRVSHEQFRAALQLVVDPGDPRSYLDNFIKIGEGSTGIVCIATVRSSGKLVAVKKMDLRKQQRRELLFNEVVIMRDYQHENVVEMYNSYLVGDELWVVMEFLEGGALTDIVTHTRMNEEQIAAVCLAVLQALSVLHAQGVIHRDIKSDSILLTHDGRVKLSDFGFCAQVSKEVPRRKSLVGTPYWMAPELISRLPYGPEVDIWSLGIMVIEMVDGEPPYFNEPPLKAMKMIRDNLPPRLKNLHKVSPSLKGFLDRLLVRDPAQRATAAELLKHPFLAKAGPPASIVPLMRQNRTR

[12] = target: Serine/threonine-protein kinase pim-1 (Homo sapiens) (UniProt P11309); assay: Inhibition of human PIM1 assessed as residual activity at 1 uM relative to control
[13] = target: Serine/threonine-protein kinase N2 (Homo sapiens) (UniProt Q16513); assay: Inhibition of human PRK2 assessed as residual activity at 0.1 uM relative to control
Sequence of Serine/threonine-protein kinase N2 (Homo sapiens) (Q16513 whole entry, looked up): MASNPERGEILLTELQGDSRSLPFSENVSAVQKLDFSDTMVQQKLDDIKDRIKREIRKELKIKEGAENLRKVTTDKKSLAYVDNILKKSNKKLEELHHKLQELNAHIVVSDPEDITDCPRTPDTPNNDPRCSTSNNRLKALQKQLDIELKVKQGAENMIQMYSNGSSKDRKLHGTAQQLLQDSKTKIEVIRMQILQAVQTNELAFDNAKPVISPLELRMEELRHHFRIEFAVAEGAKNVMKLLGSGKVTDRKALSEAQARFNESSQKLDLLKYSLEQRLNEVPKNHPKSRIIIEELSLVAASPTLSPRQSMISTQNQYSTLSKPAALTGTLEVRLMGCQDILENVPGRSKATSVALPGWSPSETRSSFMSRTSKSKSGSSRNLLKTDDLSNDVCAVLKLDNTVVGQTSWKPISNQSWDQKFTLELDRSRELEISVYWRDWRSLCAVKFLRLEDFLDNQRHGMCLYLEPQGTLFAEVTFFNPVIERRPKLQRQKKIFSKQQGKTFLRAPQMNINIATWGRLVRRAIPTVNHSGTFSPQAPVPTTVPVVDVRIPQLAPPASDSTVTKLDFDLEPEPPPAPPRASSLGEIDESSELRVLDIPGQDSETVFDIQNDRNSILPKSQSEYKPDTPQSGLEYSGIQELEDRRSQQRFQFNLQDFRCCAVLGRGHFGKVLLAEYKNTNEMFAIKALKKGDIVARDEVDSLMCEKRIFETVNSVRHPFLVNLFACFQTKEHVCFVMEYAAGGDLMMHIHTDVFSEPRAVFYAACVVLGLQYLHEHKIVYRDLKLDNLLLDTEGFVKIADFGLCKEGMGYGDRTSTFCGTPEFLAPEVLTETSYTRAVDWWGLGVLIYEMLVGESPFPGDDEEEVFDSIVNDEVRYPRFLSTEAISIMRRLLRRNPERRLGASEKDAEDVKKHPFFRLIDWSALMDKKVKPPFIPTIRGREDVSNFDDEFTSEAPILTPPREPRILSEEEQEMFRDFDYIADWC

Homo sapiens = organism: Homo sapiens; assay: Inhibition of human S6K assessed as residual activity at 0.1 uM relative to control
[14] = target: T2, Serine/threonine-protein kinase TBK1 (Homo sapiens) (UniProt Q9UHD2); assay: Inhibition of human TBK1 assessed as residual activity at 0.1 uM relative to control
T2 sequence (whole entry): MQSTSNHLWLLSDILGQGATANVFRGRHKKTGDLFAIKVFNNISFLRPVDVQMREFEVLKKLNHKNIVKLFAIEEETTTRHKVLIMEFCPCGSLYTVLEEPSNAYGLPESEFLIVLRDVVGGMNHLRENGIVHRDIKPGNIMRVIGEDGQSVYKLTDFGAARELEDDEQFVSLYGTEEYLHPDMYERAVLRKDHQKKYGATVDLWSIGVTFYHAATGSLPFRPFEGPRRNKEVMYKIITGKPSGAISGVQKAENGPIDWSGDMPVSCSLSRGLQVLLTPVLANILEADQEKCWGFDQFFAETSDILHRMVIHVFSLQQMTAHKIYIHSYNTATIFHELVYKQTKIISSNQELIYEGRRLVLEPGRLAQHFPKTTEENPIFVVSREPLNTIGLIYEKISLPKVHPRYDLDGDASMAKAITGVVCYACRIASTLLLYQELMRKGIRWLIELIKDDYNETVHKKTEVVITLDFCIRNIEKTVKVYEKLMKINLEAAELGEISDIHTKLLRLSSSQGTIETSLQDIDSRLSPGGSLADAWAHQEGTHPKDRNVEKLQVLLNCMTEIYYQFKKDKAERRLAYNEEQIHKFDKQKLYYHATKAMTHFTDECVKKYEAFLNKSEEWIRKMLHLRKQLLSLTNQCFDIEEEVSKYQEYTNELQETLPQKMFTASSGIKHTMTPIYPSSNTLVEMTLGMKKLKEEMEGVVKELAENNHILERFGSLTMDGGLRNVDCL

[15] = target: Vascular endothelial growth factor receptor 1 (Homo sapiens) (UniProt P17948); assay: Inhibition of human VEGFR1 assessed as residual activity at 0.1 uM relative to control
Sequence of Vascular endothelial growth factor receptor 1 (Homo sapiens) (P17948 whole entry): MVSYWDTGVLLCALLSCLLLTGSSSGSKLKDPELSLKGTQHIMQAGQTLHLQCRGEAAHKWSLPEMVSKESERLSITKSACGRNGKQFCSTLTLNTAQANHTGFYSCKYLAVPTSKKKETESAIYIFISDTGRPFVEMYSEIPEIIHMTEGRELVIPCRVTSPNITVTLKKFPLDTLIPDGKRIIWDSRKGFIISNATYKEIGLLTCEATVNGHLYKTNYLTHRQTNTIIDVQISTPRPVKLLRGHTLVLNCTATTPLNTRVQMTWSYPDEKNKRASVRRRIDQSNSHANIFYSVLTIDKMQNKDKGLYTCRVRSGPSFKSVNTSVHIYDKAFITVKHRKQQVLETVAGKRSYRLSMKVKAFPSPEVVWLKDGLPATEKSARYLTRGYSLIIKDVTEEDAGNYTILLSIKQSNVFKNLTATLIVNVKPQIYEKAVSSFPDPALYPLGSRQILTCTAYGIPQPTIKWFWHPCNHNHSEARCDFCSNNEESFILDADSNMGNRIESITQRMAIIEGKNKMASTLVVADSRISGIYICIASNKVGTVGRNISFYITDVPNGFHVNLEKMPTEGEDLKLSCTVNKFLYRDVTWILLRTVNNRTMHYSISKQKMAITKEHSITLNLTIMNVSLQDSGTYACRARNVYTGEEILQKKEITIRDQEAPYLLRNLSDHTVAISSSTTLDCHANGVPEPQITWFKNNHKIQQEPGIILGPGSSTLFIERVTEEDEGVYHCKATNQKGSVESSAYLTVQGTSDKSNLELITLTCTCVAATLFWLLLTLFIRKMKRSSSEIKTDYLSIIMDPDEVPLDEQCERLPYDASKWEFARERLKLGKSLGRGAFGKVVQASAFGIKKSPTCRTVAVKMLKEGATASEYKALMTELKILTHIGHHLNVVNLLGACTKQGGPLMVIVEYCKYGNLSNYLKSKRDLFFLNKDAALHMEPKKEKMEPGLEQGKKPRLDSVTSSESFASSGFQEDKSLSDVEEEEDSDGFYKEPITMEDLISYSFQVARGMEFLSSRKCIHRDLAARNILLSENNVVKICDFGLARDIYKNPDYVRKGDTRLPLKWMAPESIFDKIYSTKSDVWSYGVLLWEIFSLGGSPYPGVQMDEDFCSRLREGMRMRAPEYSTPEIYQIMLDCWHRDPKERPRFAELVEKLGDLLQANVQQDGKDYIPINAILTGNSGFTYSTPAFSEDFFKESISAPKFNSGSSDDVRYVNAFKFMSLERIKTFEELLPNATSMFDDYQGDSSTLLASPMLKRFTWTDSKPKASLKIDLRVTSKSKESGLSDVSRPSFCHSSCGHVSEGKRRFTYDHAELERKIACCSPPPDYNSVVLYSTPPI

Sequence of Calcium/calmodulin-dependent protein kinase kinase 2 (Homo sapiens) (Q96RR4 2-588 limits assumed): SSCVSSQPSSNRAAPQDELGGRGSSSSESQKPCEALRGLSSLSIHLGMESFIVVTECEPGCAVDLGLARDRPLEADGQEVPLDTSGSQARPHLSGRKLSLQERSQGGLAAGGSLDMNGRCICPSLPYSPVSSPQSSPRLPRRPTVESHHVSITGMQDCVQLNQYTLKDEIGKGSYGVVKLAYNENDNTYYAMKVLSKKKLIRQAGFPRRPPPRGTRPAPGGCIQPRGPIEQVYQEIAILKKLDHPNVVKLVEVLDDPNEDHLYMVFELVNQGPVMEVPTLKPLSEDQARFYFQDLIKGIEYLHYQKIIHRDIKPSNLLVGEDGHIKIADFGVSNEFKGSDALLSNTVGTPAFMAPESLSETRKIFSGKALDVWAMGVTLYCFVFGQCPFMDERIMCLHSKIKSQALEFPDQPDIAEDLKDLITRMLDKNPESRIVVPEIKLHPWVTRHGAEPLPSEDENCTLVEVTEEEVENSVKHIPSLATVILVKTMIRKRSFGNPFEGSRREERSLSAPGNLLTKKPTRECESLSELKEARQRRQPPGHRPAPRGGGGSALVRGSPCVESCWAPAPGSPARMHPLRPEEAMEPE
Sequence of Casein kinase II subunit alpha (Homo sapiens) (P68400 whole entry, looked up): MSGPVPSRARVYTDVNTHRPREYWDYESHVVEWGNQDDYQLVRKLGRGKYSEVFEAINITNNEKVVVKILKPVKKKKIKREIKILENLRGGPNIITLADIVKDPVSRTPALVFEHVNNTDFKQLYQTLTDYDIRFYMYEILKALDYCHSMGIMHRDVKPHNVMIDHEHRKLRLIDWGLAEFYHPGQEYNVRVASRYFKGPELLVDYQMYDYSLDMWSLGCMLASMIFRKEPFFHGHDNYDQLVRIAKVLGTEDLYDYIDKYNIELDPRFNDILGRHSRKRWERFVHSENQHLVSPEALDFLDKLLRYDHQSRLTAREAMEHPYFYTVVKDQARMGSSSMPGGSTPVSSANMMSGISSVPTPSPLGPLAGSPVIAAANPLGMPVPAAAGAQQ

Compound	Activity [1]	Activity [2]	Activity [3]	Activity [4]	Activity [5]	Activity [6]	Activity [7]	Activity [8]	Activity [9]	Activity [10]	Activity [11]	Activity [12]	Activity [13]	Activity (Homo sapiens)	Activity [14]	Activity [15]
COc1ccc2[nH]cc(/C=C3\C(=O)Nc4ccc(S(N)(=O)=O)cc43)c2c1	31%	90%	84%	105%	110%	103%	79%	91%	64%	93%	93%	79%	96%	88%	96%	96%
COc1ccc2c(c1)c(/C=C1\C(=O)Nc3ccc(S(=O)(=O)N(C)C)cc31)cn2C	30%	98%	90%	98%	106%	98%	97%	88%	88%	97%	96%	97%	108%	87%	100%	96%
COc1ccc2c(c1)c(/C=C1\C(=O)Nc3ccc(S(N)(=O)=O)cc31)cn2C	19%	101%	94%	101%	98%	93%	83%	90%	89%	100%	77%	88%	98%	92%	79%	94%
Cn1cc(/C=C2\C(=O)Nc3ccc(S(N)(=O)=O)cc32)c2ccccc21	25%	102%	96%	122%	99%	104%	92%	85%	63%	104%	74%	93%	94%	90%	75%	82%
CNS(=O)(=O)c1ccc2c(c1)/C(=C/c1cn(C)c3ccc(OC)cc13)C(=O)N2	50%	105%	100%	89%	100%	90%	90%	89%	95%	99%	84%	88%	90%	96%	97%	91%
CN(C)S(=O)(=O)c1ccc2c(c1)/C(=C/c1cn(C)c3ccc(O)cc13)C(=O)N2	25%	97%	89%	101%	111%	99%	92%	78%	92%	96%	95%	95%	91%	87%	96%	100%
